Laboratory results from patent US9012397B2 (priority 2011, dated 2015).
Where two headings read alike, the source gives them in different places.

Columns and labels:
Format in all cases: in vivo, human
mosquito bites = test system: mosquito bites
Experimental: (§1) The method of the invention has been carried out with respect to a number of skin disorders. The patients were treated with one of two peptides, each at a concentration of 50 μg/gr cream (unless otherwise indicated):
(§2) The cream was manufactured by Amiga LTD, Israel, and contains the following components:
8. males and four females suffered from mosquito bites. […]
9. 3 subjects suffering from mosquito bites were treated with ZEP3.

bee stings = conditions: both hands stung, 500 μg/gr cream once to the other hand, about 10 minutes after sting
Experimental: as §1, §2
3. A person was stung by a bee.
4. person four was stung by bees on both hands.
5. person three was stung by bees on both hands.

skin infection = test system: skin infection
Experimental: as §1, §2
1. person two suffered from an infection on the wrist of the left hand, apparently an allergic reaction to a watch band. Large spots appeared around the wrist accompanied by redness.
2. person three suffered from an infection on the wrist of the left hand, apparently an allergic reaction to a watch band. Large spots appeared around the wrist accompanied by redness and itching.
3. 2 cases of infected skin wounds.

vaginal herpes = conditions: female over 40, lesions on outer genital area; 50 μg/gr cream daily
Experimental: as §1, §2
4. A person over 40 suffered from advance vaginal herpes, with numerous lesions on the outer genital area and pronounced itching and swelling.

radiation burns = conditions: person two after mastectomy, severe radiation burns; 500 μg/gr cream several times per day
Experimental: as §1, §2
4. A person with breast cancer received radiation treatment. The person suffered from radiation burns in a large skin area with blisters and open wounds. ZEP4 was applied directly to the wounds over a period of 12 days, 1-2 times per day. • Results: an immediate (˜1 minute) ease in the itching and burning sensation.
7. person two with breast cancer after mastectomy received radiation treatment. The person suffered from severe radiation burns.

Herpes simplex = test system: Herpes simplex
Experimental: as §1, §2
5. A person suffered for many years from Herpes simplex on the neck, with no relief from commercial remedies. ZEP3 was applied topically once a day to the lesions. • Results: relief in itching and skin rash within 10-20 min.
6. person two was diagnosed with Herpes simplex.
7. person one was diagnosed with Herpes simplex.
8. person four suffered from Herpes simplex from childhood.
9. A person suffered from Herpes simplex lesions on the lips and face. […] 1-2 applications cause the lesions to disappear.
10. A person suffered from Herpes simplex on the lips, mainly when under pressure. […] The blisters disappeared after 24 hours.
11. A person suffered from Herpes simplex on the lips. ZEP3 (500 μg/gr cream) was topically applied several times during the day on the wound. • Results: the person felt relief after several minutes. The itching and redness lessened immediately and the wound disappeared after 36 hours.
12. 7 subjects suffering from Herpes simplex were treated with ZEP3.
13. A person suffered from Herpes simplex lesions on the lips.
14. A person has a festering Herpes simplex lesion. Generally, 10 days are required for recuperation.
15. A person suffered intermittingly from Herpes simplex on the lips, with blisters.

Herpes zoster = conditions: person, 50 μg/gr cream
Experimental: as §1, §2
1. A person was diagnosed with Herpes zoster (shingles), which appeared as a painful, circumferential rash in the abdominal area. The patient had been on antibiotics, with no improvement.
2. A person was diagnosed with Herpes zoster, which appeared as painful lesions with skin edema on the mid back area, appearing several times a year. […] Decrease in the skin rash and the degree of the sore and swelling and a shortening of the time of recovery (healing).

Varicella = conditions: person, 50 μg/gr cream
Experimental: as §1, §2
3. A person was diagnosed with severe Varicella, which appeared all over the body. The patient had severe itching and skin peeling. No commercial remedy helped. Initially, ZEP3 was topically applied to the hand, with improvement and relief within 24 hours. […] After 10 days, there was no sign of the disease nor were there any future complications.

itching = conditions: person
Experimental: as §1, §2
1. A person suffered from a strong itching sensation on the skin all over the body for no apparent reason.
2. A person suffered from a red rash and itching sensation on their breast. ZEP4 (500 μg/gr cream) was applied twice in a period of 2 hours. • Results: relief from itching within 10 minutes.
3. A person suffered from a strong itching sensation in the lower limbs which sometimes spread to the abdomen and back. […] I. Skin Infection

psoriasis = conditions: person
Experimental: as §1, §2
1. A person suffered from intermittent psoriasis on their head over many years. […] The patient believes that the frequency of the outbreaks has been reduced.
2. A person suffered from psoriasis on the hands. […] The patient believes that a 20% improvement has occurred over 2 weeks.
3. A person suffered from psoriasis in the anus.
4. A person suffered from extensive psoriasis at various locations. ZEP3 (500 μg/gr cream) was applied to the sores as needed. • Results: the itching ceased within 12 hours.
5. A person suffered from chronic psoriasis on the elbow.
6. A person suffered from severe psoriasis at various locations. They regularly went for treatments to the Dead Sea in Israel.

flea bites = test system: flea bites
Experimental: as §1, §2
1. person two was bitten by fleas on various occasions, resulting in an itching sensation. […] The ointment was reapplied after 6 hours.
2. person one who is very sensitive to flea bites was bitten by fleas, resulting in an itching sensation. […] The ointment should be reapplied after 12 hours.

[1] = person three, wrist infection, allergic reaction to watch band, 500 μg/gr cream several times a day
[2] = person, lesions on lips and face, 50 μg/gr cream
[3] = person, lips, 500 μg/gr cream several times a day
[4] = person, neck, 50 μg/gr cream once a day
[5] = abdominal rash, 2-3 times a day
[6] = entire body twice a day for two weeks
[7] = chronic psoriasis on elbow, 500 μg/gr cream
[8] = intermittent psoriasis on head, 500 μg/gr cream once or twice a day

Substance: pGLU-ASN-TRP-LYS-C8 [ZEP3]
- clinical outcome (mosquito bites; 3 subjects, 50 μg/gr cream): found to be therapeutic both for the itching and for the healing
- clinical outcome (mosquito bites; two males and four females, 30-57 years old, (500 μg/gr cream) as needed): an immediate relief from the itching sensation was felt
- clinical outcome (bee stings; person four): the swelling shrunk and the redness decreased to an identical degree on each hand
- clinical outcome (bee stings; person three): the swelling shrunk and the redness decreased to an identical degree on each hand
- clinical outcome (skin infection; 2 cases of infected skin wounds, 50 μg/gr cream): aided in the healing of the wounds
- clinical outcome (skin infection; [1]): immediate relief from the itching
- time to decrease in redness (skin infection; [1]): ≤ 24 h
- clinical outcome (vaginal herpes): the redness and swelling decreased, and the lesions healed
- clinical outcome (radiation burns): felt immediate relief
- clinical outcome (Herpes simplex; 7 subjects, 50 μg/gr cream): found to be therapeutic
- clinical outcome as compared to treatment with Zovirax® (Herpes simplex; person four, 50 μg/gr cream several times): Rapid drying of the lesion, shrinking of swelling and swift conclusion of the outbreak
- recuperation period (Herpes simplex; person, festering lesion, generally 10 days required, 500 μg/gr cream as needed): shortened by half
- clinical outcome (Herpes simplex; [2]): the lesions now appear only infrequently
- number of applications that cause the lesions to disappear (Herpes simplex; [2]): 1-2 applications
- clinical outcome (Herpes simplex; person, lips with blisters, 500 μg/gr cream as needed): immediate relief; the blisters stopped developing and disappeared after several hours
- clinical outcome (Herpes simplex; [3]): felt relief after several minutes. The itching and redness lessened immediately
- time until wound disappeared (Herpes simplex; [3]): 36 h
- clinical outcome (Herpes simplex; [4]): The lesions disappeared and did not return during the last 5 years
- time to relief in itching and skin rash (Herpes simplex; [4]): 10 to 20 min
- clinical outcome (Herpes simplex; person, pricking sensation on upper lip, 500 μg/gr cream as needed): the pricking sensation ceased and Herpes lesions did not develop
- clinical outcome (Herpes zoster; [5]): a decrease in the skin redness and the degree of the swelling and itching
- time to improvement in the rash (Herpes zoster; [5]): 2 to 10 min
- clinical outcome (Herpes zoster; lesions with skin edema on mid back, applied 4-5 times): reduced skin edema and an increase in the intervals between attacks. Decrease in the skin rash and the degree of the sore and swelling and a shortening of the time of recovery (healing)
- clinical outcome (Varicella; [6]): shortening the time of recovery (healing)
- time to decrease in the skin rash and the degree of the sore and swelling (Varicella; [6]): 10 to 20 min
- time until no sign of the disease (Varicella; [6]): 10 days
- time to improvement and relief (Varicella; initial application to the hand): ≤ 24 h
- clinical outcome (itching; strong itching all over the body, 500 μg/gr cream a number of times): immediate relief from itching, which ceased
- clinical outcome (itching; strong itching in lower limbs, 500 μg/gr cream as needed): immediate relief
- clinical outcome (psoriasis; [7]): the flaking of the skin disappeared and the normal skin appearance returned
- time until itching terminated (psoriasis; [7]): 2 h
- time until itching ceased (psoriasis; extensive psoriasis, 500 μg/gr cream as needed): ≤ 12 h
- clinical outcome (psoriasis; [8]): the disease disappeared
- time to relief (psoriasis; [8]): 10 to 20 min
- time until relief is felt (psoriasis; psoriasis in the anus, (500 μg/gr cream) once a day): 4 days
- clinical outcome (psoriasis; psoriasis in the anus, (500 μg/gr cream) once a day, stopped several days, repeated for 4 days): the psoriasis disappeared
- clinical outcome (psoriasis; psoriasis on hands, 500 μg/gr cream once a day): feels relief; the skin is pleasant feeling and not itchy
- improvement as believed by the patient (psoriasis; psoriasis on hands, 500 μg/gr cream once a day, over 2 weeks): 20%
- clinical outcome (flea bites; person one very sensitive to flea bites, 50 μg/gr cream): almost immediate cessation of the itching sensation
- clinical outcome (flea bites; person two, 50 μg/gr cream several times to bite location): immediate cessation of the itching sensation
